Measured values reported in US8471035B1, “Two-photon absorbing arylamine-endcapped and dialkylfluorene-bridged benzobisthiazole compounds with high oleophilicity” (The United States of America as represented by the …, priority 2011, dated 2013).

What was measured:
[1] = Solubility in toluene at room temperature; format: physicochemical
Excerpt: In addition, these chromophores are found to be even more soluble in aromatic hydrocarbon solvents as indicated by the higher solubilities of AF388-118 (≧29 wt %) and AF388-312 (≧67 wt %) in toluene.

[2] = Solubility in hexane at room temperature (AF-388 series); format: physicochemical; settings: for solubility in hexane, % wt/vol. / solubility in hexane, % wt/wt: 24° C.; for amount that remained completely dissolved in hexane for months: ambient conditions

concentration of toluene solution that remained homogenous [1] [M]	solubility in toluene [1] [wt %]	concentration of toluene solution that solidified at room temperature after 72 hours ([1]; 72 hours) [M]	solubility in hexane, % wt/vol. [2] [% wt/vol.]	solubility in hexane, % wt/wt [2] [% wt/wt]	amount that remained completely dissolved in hexane for months [2] [wt %]	Compound
0.24	≥ 29	0.34	0.41	0.61	–	CC(C)CCCC(C)CCC1(CCC(C)CCCC(C)C)c2cc(-c3nc4cc5sc(-c6ccc7c(c6)C(CCC(C)CCCC(C)C)(CCC(C)CCCC(C)C)c6cc(N(c8ccccc8)c8ccccc8)ccc6-7)nc5cc4s3)ccc2-c2ccc(N(c3ccccc3)c3ccccc3)cc21 (stereo not shown) [AF-388-118]
–	–	–	36.3	51.3	≥ 51	CC(C)CCCC(C)CCCC(C)CCCC(C)CCC1(CCC(C)CCCC(C)CCCC(C)CCCC(C)C)c2cc(-c3nc4cc5sc(-c6ccc7c(c6)C(CCC(C)CCCC(C)CCCC(C)CCCC(C)C)(CCC(C)CCCC(C)CCCC(C)CCCC(C)C)c6cc(N(c8ccccc8)c8ccccc8)ccc6-7)nc5cc4s3)ccc2-c2ccc(N(c3ccccc3)c3ccccc3)cc21 (stereo not shown) [AF-388-416, 2,6-Bis[7-(diphenylimino)-9,9-bis(3,7,11,15-tetramethylhexadecyl)fluoren-2-yl]-benzobisthiazole]
0.34	≥ 67	–	20.2	30.4	≥ 30	CC(C)CCCC(C)CCCC(C)CCC1(CCC(C)CCCC(C)CCCC(C)C)c2cc(-c3nc4cc5sc(-c6ccc7c(c6)C(CCC(C)CCCC(C)CCCC(C)C)(CCC(C)CCCC(C)CCCC(C)C)c6cc(N(c8ccccc8)c8ccccc8)ccc6-7)nc5cc4s3)ccc2-c2ccc(N(c3ccccc3)c3ccccc3)cc21 (stereo not shown) [AF-388-312, 2,6-Bis[7-(diphenylimino)-9,9-bis(3,7,1′-trimethyldodecylfluoren-2-yl)]-benzobisthiazole]
